The text below walks through data of ChEMBL document CHEMBL4028827, “Discovery of indazole aldosterone synthase (CYP11B2) inhibitors as potential treatments for hypertension” (Bioorg Med Chem Lett, 2017).

A short description of assay [1]: Selectivity ratio of IC50 for hepatic CYP2D6 (unknown origin) to IC50 for human CYP11B2-CLE9 expressed in Chinese hamster V79 cells.
Another assay deals with T1, Aromatase (Homo sapiens, UniProt P11511).
T1 sequence (P11511 whole entry): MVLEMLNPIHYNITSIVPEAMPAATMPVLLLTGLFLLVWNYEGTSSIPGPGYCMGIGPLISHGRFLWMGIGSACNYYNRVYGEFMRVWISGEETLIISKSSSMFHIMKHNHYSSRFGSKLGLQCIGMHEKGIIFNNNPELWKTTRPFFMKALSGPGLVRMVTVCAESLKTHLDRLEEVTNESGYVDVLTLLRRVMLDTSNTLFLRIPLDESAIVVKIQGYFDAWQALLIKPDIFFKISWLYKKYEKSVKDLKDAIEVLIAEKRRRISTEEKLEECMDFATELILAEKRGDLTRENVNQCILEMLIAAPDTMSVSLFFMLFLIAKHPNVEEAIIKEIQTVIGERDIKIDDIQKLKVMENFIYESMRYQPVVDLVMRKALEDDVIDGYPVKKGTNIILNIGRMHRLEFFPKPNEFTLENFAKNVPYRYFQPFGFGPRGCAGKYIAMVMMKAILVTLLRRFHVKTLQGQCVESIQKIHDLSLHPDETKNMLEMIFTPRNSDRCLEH
Kind of assay: Inhibition of CYP19 (unknown origin) using MFC as substrate and NADPH as cofactor preincubated for 10 mins with cofactor followed by substrate/enzyme addition measured after 30 mins.

Assay [2] deals with T2, Cytochrome P450 11B1, mitochondrial (Homo sapiens, UniProt P15538).
T2 sequence (P15538 whole entry): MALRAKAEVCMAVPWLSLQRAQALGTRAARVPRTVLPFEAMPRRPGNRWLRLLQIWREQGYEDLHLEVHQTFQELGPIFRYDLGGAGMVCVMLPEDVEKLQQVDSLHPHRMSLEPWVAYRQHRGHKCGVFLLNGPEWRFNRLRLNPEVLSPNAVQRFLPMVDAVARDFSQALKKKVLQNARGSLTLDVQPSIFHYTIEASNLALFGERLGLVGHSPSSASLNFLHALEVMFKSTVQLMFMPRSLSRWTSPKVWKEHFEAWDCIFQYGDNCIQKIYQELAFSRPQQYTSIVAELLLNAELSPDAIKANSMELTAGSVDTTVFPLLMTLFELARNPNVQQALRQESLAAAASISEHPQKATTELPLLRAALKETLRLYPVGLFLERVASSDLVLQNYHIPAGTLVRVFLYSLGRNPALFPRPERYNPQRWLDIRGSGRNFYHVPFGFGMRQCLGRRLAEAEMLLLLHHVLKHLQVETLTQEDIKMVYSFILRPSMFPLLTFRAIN
Kind of assay: Inhibition of human CYP11B1-8C7 expressed in Chinese hamster V79 cells using 11-deoxycortisol as substrate preincubated for 1 hr followed by substrate addition measured for 3 hrs by HTRF assay. In kind it is ADME, cell-based.

The target of assay [3] is T3, Cytochrome P450 11B2, mitochondrial (Homo sapiens, UniProt P19099).
T3 sequence (P19099 whole entry): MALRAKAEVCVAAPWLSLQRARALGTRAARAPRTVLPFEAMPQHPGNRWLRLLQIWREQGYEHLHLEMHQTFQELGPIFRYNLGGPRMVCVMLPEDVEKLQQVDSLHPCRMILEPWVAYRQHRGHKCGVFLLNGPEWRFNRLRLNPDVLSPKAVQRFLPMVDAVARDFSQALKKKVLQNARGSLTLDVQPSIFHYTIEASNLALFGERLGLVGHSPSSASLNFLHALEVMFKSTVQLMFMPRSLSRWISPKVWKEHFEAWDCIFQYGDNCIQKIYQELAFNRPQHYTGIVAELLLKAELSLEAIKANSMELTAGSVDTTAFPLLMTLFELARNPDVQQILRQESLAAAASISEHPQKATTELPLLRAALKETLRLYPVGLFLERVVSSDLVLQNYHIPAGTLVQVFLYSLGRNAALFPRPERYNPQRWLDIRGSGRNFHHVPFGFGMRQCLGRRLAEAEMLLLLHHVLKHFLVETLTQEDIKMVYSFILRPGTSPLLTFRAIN
In words: Inhibition of human CYP11B2-CLE9 expressed in Chinese hamster V79 cells using 11-deoxycorticosterone as substrate preincubated for 1 hr followed by substrate addition measured for 3 hrs by HTRF assay. In kind it is cell-based.

As for `CC(C)(O)c1cncc(-n2ncc3c(C(F)(F)F)cccc32)c1`, in assay [1], the “Ratio IC50” value is above 1000. The 50% inhibitory concentration (IC50) against Aromatase is 4.6 µM; in assay [2] it was 0.098 to 0.0983 µM; in assay [3], 0.0022 to 0.00224 µM.

Usually IC50 stands for the midpoint of a concentration-inhibition curve.
